Assay results published in the NIST ThermoML archive (doi:10.1016/j.jct.2017.08.017).
“And” between values parts separate entries of the source, which are not always exact repeats. Equal values may be shown once. ± gives the expanded uncertainty stated by the source.

Legend:
[1] = molar enthalpy of vaporization or sublimation; conditions: 298.15 K; Crystal; Static calorimetry
[2] = Crystal, Calculated from knudsen effusion weight loss

## Oc1ccccc1-c1nc2ccccc2s1 [2-(2-hydroxyphenyl)-1,3-benzothiazole]
[1]
  molar enthalpy: 105 ± 2.2 kJ/mol

## Oc1ccccc1-c1nc2ccccc2o1 [2-(2-hydroxyphenyl)benzoxazole]
[2]; 331.16 K
  vapor or sublimation pressure: 0.000127 ± 0.00012 kPa and 0.00012 ± 0.00012 kPa and 0.000119 ± 0.00012 kPa
[2]; 333.19 K
  vapor or sublimation pressure: 0.000156 ± 0.00012 kPa and 0.000152 ± 0.00012 kPa and 0.00015 ± 0.00012 kPa
[2]; 335.13 K
  vapor or sublimation pressure: 0.000191 ± 0.00012 kPa and 0.000188 ± 0.00012 kPa
[2]; 337.16 K
  vapor or sublimation pressure: 0.000233 ± 0.00012 kPa and 0.00023 ± 0.00012 kPa and 0.000248 ± 0.00012 kPa
[2]; 339.18 K
  vapor or sublimation pressure: 0.000301 ± 0.00012 kPa and 0.000288 ± 0.00012 kPa and 0.000294 ± 0.00012 kPa
[2]; 341.12 K
  vapor or sublimation pressure: 0.000365 ± 0.00012 kPa and 0.000362 ± 0.00012 kPa and 0.000366 ± 0.00012 kPa
[2]; 343.16 K
  vapor or sublimation pressure: 0.000446 ± 0.00012 kPa and 0.000441 ± 0.00012 kPa and 0.000477 ± 0.00012 kPa
[2]; 345.17 K
  vapor or sublimation pressure: 0.000571 ± 0.00012 kPa and 0.000545 ± 0.00012 kPa and 0.000558 ± 0.00012 kPa
[2]; 347.11 K
  vapor or sublimation pressure: 0.000688 ± 0.00012 kPa and 0.00068 ± 0.00012 kPa
[2]; 349.16 K
  vapor or sublimation pressure: 0.000829 ± 0.00012 kPa and 0.000822 ± 0.00012 kPa and 0.000879 ± 0.00012 kPa
[2]; 351.16 K
  vapor or sublimation pressure: 0.001027 ± 0.00014 kPa and 0.001049 ± 0.00014 kPa and 0.001006 ± 0.00014 kPa
[2]; 353.12 K
  vapor or sublimation pressure: 0.001264 ± 0.00015 kPa and 0.001273 ± 0.00015 kPa and 0.00126 ± 0.00015 kPa
[1]
  molar enthalpy: 100 ± 1.8 kJ/mol

## c1ccc(-c2nc3ccccc3s2)cc1 [2-phenylbenzothiazole]
[1]
  molar enthalpy: 99.3 ± 1.7 kJ/mol

## c1ccc(-c2nc3ccccc3o2)cc1 [2-phenylbenzoxazole]
[1]
  molar enthalpy: 90.9 ± 2 kJ/mol
